Measurements: patent US20230390310A1, “PERSONALIZED, PRECISE, CONSISTENT BOTANICAL FORMULATIONS ON DEMAND” (ALTOPA, INC, priority 2022, published 2023)
“Also recorded” adds a separate entry of the source.

Key:
[1] = Patient-reported outcomes, insomnia and sleep (Rest); type: in vivo, patients; conditions: THC small amount (0.25-10 mg/ml); terpenes increased by 0.25-3.5 mg/mL
Source text: (§1) FIG. 10 is a Pain Management Table, FIG. 11 is an Insomnia Table, FIG. 12 is a Cancer Treatment Support Table, FIG. 13 is an Anxiety, Depression, PTSD Management Table, FIG. 14 is a Chronic Obstructive Pulmonary Disease (COPD) Table, and FIG. 15 is a Irritable Bowel Syndrome Table. These are symptom-specific tables which summarize the pharmaceutical compositions where two or more patients, grouped by specific composition have reported moderate to substantial symptom improvement with the use of the specified composition for periods of use ranging from 1 to 24 months. With respect to the Tables in FIGS. 10-15, the amounts specified in the tables represent the mass in milligrams (mg) per 1.0 milliliter (mL). Dosing protocols vary and may involve a dosing volume ranging from 0.1 ml to 1 ml with a frequency of once, twice or three times a day (QD, BID, or TID, respectively), and in some cases used on an as-needed basis.

[2] = Patient-reported outcomes, pain and inflammation (Relief); type: in vivo, patients; conditions: pain / inflammatory conditions (pain and anxiety)
Source text: (§2) Relief includes Base Formulations used in connection with more than one patient suffering from pain and/or inflammatory diseases including neuropathic, and nociceptive pain caused by a range of injuries, arthritis, fibromyalgia, fibrosis, shingles, diabetes, and Lyme disease. Some patients suffering from pain were also suffering from COPD. […] For example, in the Table FIG. 1, Base Formulation TF8 has twice as much terpenes as TF7. […] If a patient was experience pain resulting from an inflammatory condition, such as COPD, then it was not necessary to include THC in the patient's formulations. However, if the patient was suffering from a type of pain such as nociceptive or neuropathic, the use of THC was beneficial. Increasing alpha pinene will be beneficial for patients with COPD.
In addition, even when a patient was reporting good symptom relief, patient dosages were titrated up, including both dosing frequency and dose size, to determine whether better relief could be achieved. […] Thereafter, the HCP would revert the formulation back to the previous dosage and constituent amounts. Treatment then continues forward at that reverted level.
as §1

[3] = Patient-reported side effects and tolerability
[4] = Patient-reported outcomes, gastrointestinal disorders (Wisdom); type: in vivo, patients; conditions: 15-100 mg/mL added
Source text: Studies have shown that the Wisdom BASE formulations relieve symptoms associated with gastrointestinal disorders, such as IBS and others.
as §1

[5] = Patient-reported outcomes, COPD; type: in vivo; conditions: patients suffering from COPD
Source text: as §2
(§3) FIG. 10 is a Pain Management Table, FIG. 11 is an Insomnia Table, FIG. 12 is a Cancer Treatment Support Table, FIG. 13 is an Anxiety, Depression, PTSD Management Table, FIG. 14 is a Chronic Obstructive Pulmonary Disease (COPD) Table, and FIG. 15 is a Irritable Bowel Syndrome Table. These are symptom-specific tables which summarize the pharmaceutical compositions where two or more patients, grouped by specific composition have reported moderate to substantial symptom improvement with the use of the specified composition for periods of use ranging from 1 to 24 months. […]

[6] = Patient-reported outcomes, anxiety, depression, PTSD (Calm / Serenity); type: in vivo, patients; conditions: people with anxiety
Source text: FIGS. 2 and 3 show Oblend® Treatment Family (Oblend Tx) Calm formulations and Oblend Tx Serenity formulations. These tables include base formulations (BASE) for subjects suffering from anxiety, depression, and PTSD. The BASE Formulation is selected from Calm or Serenity Tables based on the subject's symptoms.
Some patients respond well to LIM and LOL while others respond better to more sedative terpenes like MYR and TPN. In most cases, patients with anxiety respond well to Calm Tx formulations. […] If a patient suffering from anxiety initially began treatment with the Calm Base and experienced some symptom relief, then, this patient continued taking Calm formulations from Calm or a personalized formulation with a similar terpene profile as Calm.
as §3

SMILES | sleep on adding or increasing the ingredient [1] | patient outcomes on adding the ingredient to the formulation [2] | further results
C=CC(C)(O)CCC=C(C)C (stereo not shown) [linalool, Linalool] | improves sleep | – | –
CCCCCc1cc(O)c2c(c1)OC(C)(C)c1ccc(C)cc1-2 [CBN, Cannabinol] | – | favorable patient outcomes increased | –
CCCCCc1cc(O)c2c(c1)OC(C)(C)C1CC=C(C)CC21 (stereo not shown) [Delta-8, delta-8-tetrahydrocannabinol] | – | – | side-effects compared with Delta-9 THC ([3]; according to most patients): fewer side-effects
C=C(C)[C@@H]1CCC(C)=C[C@H]1c1c(O)cc(CCCCC)cc1O [CBD, Cannabidiol] | – | – | gastrointestinal symptom relief on adding the ingredient [4]: improved symptom relief
C=CC(C)(O)CCC=C(C)CCC=C(C)C (stereo not shown) [nerolidol, Nerolidol] | increased the duration and quality of sleep | – | allergy ([3]; ingredient of most formulations): some patients are allergic
CCCCCc1cc(O)c(C/C=C(\C)CCC=C(C)C)c(O)c1 [CBG, Cannabigerol] | – | some patients reported a reduction in symptoms; also recorded: favorable patient outcomes increased | –
C=C1CC/C=C(\C)CC[C@@H]2[C@@H]1CC2(C)C [beta Caryophyllene, Beta Caryophyllene] | – | significant improvement in symptom relief; also recorded: increased patient outcomes | COPD outcomes on increasing the terpene [5]: significantly improved outcomes
CCCCCc1cc(O)c2c(c1)OC(C)(C)[C@@H]1CCC(C)=C[C@@H]21 [THC, Tetrahydrocannabinol, reference compound] | patients were able to fall asleep; also recorded: improves sleep | improved pain relief | –
CC1=CCC2CC1C2(C)C (stereo not drawn) [alpha-pinene, Alpha Pinene] | – | – | COPD outcomes on increasing the terpene [5]: significantly improved outcomes
C=C(C)[C@H]1CC=C(C)CC1 [limonene, Limonene] | – | – | anxiety response to the terpene [6]: make some people more anxious
CC1=CCC(=C(C)C)CC1 [terpinolene, Terpinolene] | increased the duration and quality of sleep; also recorded: improves sleep | – | –
C=CC(=C)CCC=C(C)C [myrcene, Myrcene] | increased the duration and quality of sleep; also recorded: improves sleep | – | –
CCCCCc1cc(O)c2c(c1)OC(C)(CCC=C(C)C)C=C2 (stereo not shown) [CBC, Cannabichromene] | – | in some cases, patients reported a reduction in symptoms; also recorded: favorable patient outcomes improved dramatically | –
